According to patent US20230270119A1, “BIOSTIMULANT AND BIOPROTECTIVE PEPTIDES AND THEIR USE IN AGRICULTURE” (priority 2020, published 2023):

Assays:
Botrytis cinerea = Botrytis cinerea necrosis areas on treated detached tomato leaves; format: in vivo, Botrytis cinerea on Solanum lycopersicum; settings: 100 fM, day 8, control 11.72 mm^2 (FIG. 13)
Description: (§1) For the performance of assays on the phytopathogenic Botrytis cinerea and Alternaria alternata fungi, the present inventors used spores of this microorganism obtained from cultures on solid PDA (Potato Dextrose Agar) sporulation substrate. The plates were inoculated with 20 μl of a conidial suspension at a concentration of 1×10^6 spores/ml and incubated for 15 days at 25° C. in the presence of diffused light, so as to obtain complete sporulation. The spores were then collected in 5 ml of sterile water and, in order to remove the mycelium, were filtered through glass wool, washed with sterile distilled water and collected by centrifugation at room temperature. The concentration of spores suitable for inoculation (10^5-10^7 spores/ml) was determined by the serial dilution method using a Burker cell counting chamber for spore counting.
(§2) The assay was carried out on a detached leaf by taking a compound leaf for each treated tomato plant and for each control plant. Each leaflet of the compound leaf was marked with 3 markers in order to guide the subsequent application of the spores and detection of the pathogen developing necrotic areas.
The leaves were treated by applying 2 μl of a composition comprising the peptides PS1-70 and PS1-120 of the invention at a concentration of 100 pM, 100 fM or 1×PBS for the control leaves. After 6 hours, the time necessary for the perception of the peptides, the leaves were detached from the plant and inoculations with 10 μl of spore solution were carried out in the internerve spaces and near the previously marked points. Monitoring was carried out by measuring the necrosis areas (expressed in mm^2) 1, 3, 5, 8 days after inoculation of the pathogen. The necrosis areas recorded on the control leaves were much larger than those detected on plants treated with the peptides of the invention. This difference increased as a function of the time elapsed since inoculation. The resistance inducing effect of the picomolar treatment is already statistically significant from the first day of inoculation of the pathogen up to the eighth day where values of 33 mm^2 were reached on the control leaves, unlike the treated leaves where values not exceeding 18 mm^2 were recorded for both peptides (FIG. 12A).

[1] = tested on: Spodoptera littoralis larvae; assay: Bioassay on Spodoptera littoralis larvae fed with peptide-treated tomato leaves; format: in vivo; settings: day 13, femtomolar concentration; for average weight of larvae: control 59 mg (FIG. 11A); for survival rate of larvae: control 100% (FIG. 11B)
Description: Briefly, S. littoralis larvae were grown in a climate chamber at 25° C., 70% relative humidity (RH), with a 16-hour light and 8-hour dark photoperiod and fed with an artificial diet until completion of the first moult. For the bioassays, 150 larvae for each thesis were grown on tomato leaves for the entire duration of the second instar to adapt them to the different diet. The newly moulted third-instar larvae up to the moult stage were fed with plants on which a composition comprising peptides PS1-70 and PS1-120 had been applied at 100 pM and 100 fM concentrations in 1×PBS buffer. Larvae fed with plants treated with 1×PBS buffer only were used as a control. Bioassays were carried out under the same environmental conditions, in 32-well plastic trays containing 1.5% (w/v) agar and 0.005% (w/v) methyl parahydroxybenzoate, which are useful for creating a humid environment for maintaining cell turgor of tomato leaves. Each experimental group consisted of 32 larvae. The survival of the larvae was monitored daily, and their weight every other day. […] A significant decrease in the survival of larvae fed with leaves of plants treated with the peptides of the invention compared to those fed with leaves of the control plants was also observed for both assays (FIGS. 10B and 10D). […] The same assay scheme was carried out by the present inventors by feeding S. littoralis larvae with leaves treated with the peptide PS1-70 and with peptides having the sequences SEQ ID NO. 3, 5, and 8 at femtomolar concentration. […] A significant decrease was also observed in the survival of larvae fed with peptide-treated leaves compared to those fed with the control leaves (FIG. 11B). […] 8, SEQ ID NO. 3, and SEQ ID NO. 5 (FIG. 11B).

Alternaria alternata = Alternaria alternata necrosis areas on treated tomato leaves; format: in vivo; settings: 100 fM, day 8, control 17 mm^2 (FIG. 14B)
Description: as §1, §2
The present inventors also performed assays aimed at determining the effects of exogenous application of the peptides of the invention on tomato plants against the development of the necrotrophic Alternaria alternata fungus (FIG. 14).
The positive effect of the treatment was statistically significant from day 1 of inoculation of the pathogen to day 8 where values of 24 mm^2 were reached on the control leaves, unlike the treated leaves where values of 8.4 and 8.0 mm^2 were recorded on leaves treated with the peptides PS1-70 and PS1-120 at a concentration of 100 fM (FIG. 14A); and values of 17 mm^2 were recorded on the control leaves and values of 8.3 mm^2, 7.9 mm^2, 8.9 mm^2, and 7.8 mm^2 were recorded on leaves treated with the peptides PS1-70, SEQ ID NO.8, SEQ ID NO.3 and SEQ ID NO.5, respectively, at a concentration of 100 fM (FIG. 14B).

CAT2, SAM and APX2 genes = assay: Salt stress gene expression in tomato plants irrigated with 100 fM peptides; format: in vivo; settings: femtomolar
Description: The analysis was carried out on the CAT2(A), SAM (B) and APX2 (C) genes. The asterisks indicate the statistical significance of the data by Student's t-test (*p<0.05; **p<0.01; ***p<0.001). […] An experiment was also set up to verify the efficiency of the peptides PS1-70, PS1-120 and SEQ ID NO.5, when administered at femtomolar concentrations, in promoting tolerance to a high salt stress condition.

[2] = Biometric parameters of tomato plants irrigated with peptides; format: in vivo; settings: 100 fM
Description: FIG. 20 illustrates the effect of irrigation treatment with the peptides PS1-70, PS1-120 and SEQ ID NO.5 at a concentration of 100 fM on the biometric parameters of the tomato plant. […] The asterisks indicate the statistical significance of the data by Student's t-test (*p<0.05). A few biometric parameters are shown in FIG. 20, measured after 14 days of continuous salt stress (150 mM) and 15 days after irrigation with the peptides PS1-70, PS1-120 and SEQ ID NO.5 at 100 fM concentrations, and the respective controls.

Row | Sequence | necrosis areas (Botrytis cinerea) [mm^2] | average weight of larvae [1] [mg] | survival rate of larvae [1] [%] | necrosis areas (Alternaria alternata) [mm^2] | activation of salt stress-responsive genes (CAT2, SAM and APX2 genes; 8 days after irrigation, 0 mM NaCl (FIG. 18A1, B1, C1)) | tolerance to salt / induction of responsive genes (CAT2, SAM and APX2 genes; irrigated 7 days with 150 mM NaCl (FIG. 18A2, B2, C2)) | root surface (root area) ([2]; 14 days of salt stress 150 mM, 15 days after irrigation (FIG. 20A)) | growth (fresh weight) of the aerial part ([2]; absence of salt (FIG. 20B))
1 | DDMQEEPKVKLHHEKGGDEKEKIIEKETPSQDI [SEQ ID NO. 8] | 7.67 | 13 | 15.62 | 7.9 | – | – | – | –
2 | EKETPSQDI [SEQ ID NO. 3] | 8.89 | 24 | 43.75 | 8.9 | – | – | – | –
3 | DDMQEEPKVKLHHEKG [SEQ ID NO. 5] | 6.81 | 21 | 15.62 | 7.8 | able to activate a series of salt stress-responsive genes | more salt-tolerant than the untreated control plants | greater root surface | able to promote the growth of the aerial part of the plant
